Assay results from ChEMBL document CHEMBL3272315, “Synthesis of angiotensin II antagonists containing N- and O-methylated and other amino acid residues” (J Med Chem, 1976).
Non-standard residues stand in square brackets, D forms with d. Residues, ends and D or L forms follow the SMILES beside them. Sar = CNCC(=O)O

Tests used:
[1] = Antagonist activity at angiotensin AT2 receptor in isolated cat adrenal medulla; type: tissue-based, Felis catus
Rattus norvegicus [2] = species on record: Rattus norvegicus; assay: Induction of pressor in vagotomized and ganglion-blocked rat assessed as initial pressor activity relative to angiotensin 2; type: functional
Rattus norvegicus [3] = assay: Induction of blood pressure in vagotomized and ganglion-blocked rat at 6000 ng/kg/min, iv measured at 30 mins; type: functional
Rattus norvegicus [4] = assay: Potentiation of angiotensin 2-induced of blood pressure in vagotomized and ganglion-blocked rat at 6000 ng/kg/min, iv relative to before compound infusion; type: functional
Rattus norvegicus [5] = assay: Induction of blood pressure in vagotomized and ganglion-blocked rat at 250 ng/kg/min, iv measured at 3 mins; type: functional
[6] = Antagonist activity at angiotensin AT2 receptor in rabbit aortic strips assessed as inhibition of angiotensin 2- myotropic mediated response; conditions: Oryctolagus cuniculus; read-out: pA2 (converted)
Rattus norvegicus [7] = assay: Potentiation of angiotensin 2-induced of blood pressure in vagotomized and ganglion-blocked rat at 250 ng/kg/min, iv relative to before compound infusion; type: functional
Rattus norvegicus [8] = assay: Induction of blood pressure in vagotomized and ganglion-blocked rat at 250 ng/kg/min, iv measured at 30 mins; type: functional
Felis catus = species on record: Felis catus; assay: Agonist activity at angiotensin AT2 receptor in isolated cat adrenal medulla assessed as secretory activity relative to angiotensin 2; type: tissue-based
Rattus norvegicus [9] = assay: Induction of blood pressure in vagotomized and ganglion-blocked rat at 250 ng/kg/min, iv measured at 10 mins; type: functional
Rattus norvegicus [10] = assay: Induction of blood pressure in vagotomized and ganglion-blocked rat at 6000 ng/kg/min, iv measured at 10 mins; type: functional
Rattus norvegicus [11] = assay: Induction of blood pressure in vagotomized and ganglion-blocked rat at 6000 ng/kg/min, iv measured at 3 mins; type: functional
Rattus norvegicus [12] = assay: Potentiation of angiotensin 2-induced blood pressure in acute adrenalectomized rat at 250 ng/kg/min, iv relative to before compound infusion; type: functional
Rattus norvegicus [13] = assay: Induction of blood pressure in acute adrenalectomized rat at 250 ng/kg/min, iv measured at 3 mins in presence of propranolol (reference value: 0.78 +/- 0.26 mmHg); type: functional
Rattus norvegicus [14] = assay: Induction of blood pressure in acute adrenalectomized rat at 250 ng/kg/min, iv measured at 3 mins (reference value: 0.78 +/- 0.26 mmHg); type: functional
Rattus norvegicus [15] = assay: Induction of blood pressure in acute adrenalectomized rat at 250 ng/kg/min, iv measured at 30 mins in presence of propranolol (reference value: 3.66 +/- 0.74 mmHg); type: functional
Rattus norvegicus [16] = assay: Potentiation of angiotensin 2-induced blood pressure in acute adrenalectomized rat at 250 ng/kg/min, iv in presence of propranolol relative to before compound infusion; type: functional
Rattus norvegicus [17] = assay: Induction of blood pressure in rat at 250 ng/kg/min, iv measured at 30 mins (reference value: 3.66 +/- 0.74 mmHg); type: functional
Rattus norvegicus [18] = assay: Induction of blood pressure in rat at 250 ng/kg/min, iv measured at 3 mins (reference value: 0.78 +/- 0.26 mmHg); type: functional
Rattus norvegicus [19] = assay: Potentiation of angiotensin 2-induced blood pressure in rat at 250 ng/kg/min, iv relative to before compound infusion; type: functional
Rattus norvegicus [20] = assay: Induction of blood pressure in acute adrenalectomized rat at 250 ng/kg/min, iv measured at 30 mins (reference value: 3.66 +/- 0.74 mmHg); type: functional
Rattus norvegicus [21] = species on record: Rattus norvegicus; assay: Induction of pressor in vagotomized and ganglion-blocked rat assessed as initial pressor activity up to 10 ug/ml relative to angiotensin 2; type: functional
Rattus norvegicus [22] = assay: Induction of blood pressure in sham operated rat at 250 ng/kg/min, iv measured at 30 mins (reference value: 3.66 +/- 0.74 mmHg); type: functional
Rattus norvegicus [23] = assay: Potentiation of angiotensin 2-induced blood pressure in 6 days adrenalectomized rat at 250 ng/kg/min, iv in presence of propranolol relative to before compound infusion; type: functional
Rattus norvegicus [24] = assay: Induction of blood pressure in chronic adrenalectomized rat at 250 ng/kg/min, iv measured at 3 mins (reference value: 0.78 +/- 0.26 mmHg); type: functional
Rattus norvegicus [25] = assay: Induction of blood pressure in rat at 250 ng/kg/min, iv measured at 30 mins in presence of propranolol (reference value: 3.66 +/- 0.74 mmHg); type: functional
Rattus norvegicus [26] = assay: Potentiation of angiotensin 2-induced blood pressure in chronic adrenalectomized rat at 250 ng/kg/min, iv in presence of propranolol relative to before compound infusion; type: functional
Rattus norvegicus [27] = assay: Potentiation of angiotensin 2-induced blood pressure in sham operated rat at 250 ng/kg/min, iv relative to before compound infusion; type: functional
Rattus norvegicus [28] = assay: Induction of blood pressure in chronic adrenalectomized rat at 250 ng/kg/min, iv measured at 30 mins (reference value: 3.66 +/- 0.74 mmHg); type: functional
Rattus norvegicus [29] = assay: Induction of blood pressure in 6 days adrenalectomized rat at 250 ng/kg/min, iv measured at 30 mins (reference value: 3.66 +/- 0.74 mmHg); type: functional
Rattus norvegicus [30] = assay: Induction of blood pressure in 6 days adrenalectomized rat at 250 ng/kg/min, iv measured at 3 mins (reference value: 0.78 +/- 0.26 mmHg); type: functional
Rattus norvegicus [31] = assay: Induction of blood pressure in sham operated rat at 250 ng/kg/min, iv measured at 3 mins (reference value: 0.78 +/- 0.26 mmHg); type: functional
Rattus norvegicus [32] = assay: Induction of blood pressure in rat at 250 ng/kg/min, iv measured at 3 mins in presence of propranolol (reference value: 0.78 +/- 0.26 mmHg); type: functional

CC[C@H](C)[C@H](NC(=O)[C@@H]1CCCN1C(=O)[C@H](Cc1cnc[nH]1)NC(=O)[C@@H](NC(=O)[C@H](Cc1ccc(O)cc1)N(C)C(=O)[C@@H](NC(=O)[C@H](CCCNC(=N)N)NC(=O)CNC)C(C)C)[C@@H](C)CC)C(=O)O
pA2 [1]: 9.16
Activity (Rattus norvegicus [2]): 0.34%
Activity (Rattus norvegicus [3]): 14.4 mmHg
Ratio (Rattus norvegicus [4]): 12.09
Activity (Rattus norvegicus [5]): 8 mmHg
Kb [6]: 36.3 nM
Ratio (Rattus norvegicus [7]): 2.14
Activity (Rattus norvegicus [8]): 9.8 mmHg
Activity (Felis catus): 0.11%
Activity (Rattus norvegicus [9]): 10 mmHg
Activity (Rattus norvegicus [10]): 21.6 mmHg
Activity (Rattus norvegicus [11]): 39.2 mmHg

CC[C@H](C)[C@H](NC(=O)[C@H](Cc1ccc(O)cc1)NC(=O)[C@@H](NC(=O)[C@H](CCCNC(=N)N)NC(=O)CNC)C(C)C)C(=O)N[C@@H](Cc1cnc[nH]1)C(=O)N1CCC[C@H]1C(=O)N(C)[C@H](C(=O)O)[C@@H](C)CC
Ratio (Rattus norvegicus [12]): 2.53
Activity (Rattus norvegicus [13]): 21 mmHg
Activity (Rattus norvegicus [14]): 24.66 mmHg
pA2 [1]: 8
Activity (Rattus norvegicus [2]): 1.06%
Activity (Rattus norvegicus [15]): 17.71 mmHg
Ratio (Rattus norvegicus [16]): 2.56
Activity (Rattus norvegicus [17]): 32 mmHg
Activity (Rattus norvegicus [5]): 25.1 mmHg
Kb [6]: 14.1 nM
Activity (Rattus norvegicus [18]): 25.1 mmHg
Ratio (Rattus norvegicus [7]): 2.99
Activity (Rattus norvegicus [8]): 32 mmHg
Ratio (Rattus norvegicus [19]): 2.99
Activity (Felis catus): 0.1%
Activity (Rattus norvegicus [9]): 36 mmHg
Activity (Rattus norvegicus [20]): 30.33 mmHg

CC[C@H](C)[C@H](NC(=O)[C@@H]1CCCN1C(=O)[C@H](Cc1c[nH]cn1)NC(=O)[C@H]([C@@H](C)CC)N(C)C(=O)[C@H](Cc1ccc(O)cc1)NC(=O)[C@@H](NC(=O)[C@H](CCCN=C(N)N)NC(=O)CNC)C(C)C)C(=O)O
pA2 [1]: 9.31
Activity (Rattus norvegicus [2]): 0.46%
Activity (Rattus norvegicus [5]): 15.66 mmHg
Kb [6]: 22.9 nM
Ratio (Rattus norvegicus [7]): 3.26
Activity (Rattus norvegicus [8]): 22.8 mmHg
Activity (Felis catus): 0.01%
Activity (Rattus norvegicus [9]): 23 mmHg

CC[C@H](C)[C@@H](C(=O)N[C@@H](Cc1cnc[nH]1)C(=O)N1CCC[C@H]1C(=O)N(C)[C@H](C(=O)O)[C@@H](C)CC)N(C)C(=O)[C@H](Cc1ccc(O)cc1)NC(=O)[C@@H](NC(=O)[C@H](CCCNC(=N)N)NC(=O)CNC)C(C)C
Activity (Rattus norvegicus [21]): 0%
pA2 [1]: 8
Activity (Rattus norvegicus [3]): 7.33 mmHg
Ratio (Rattus norvegicus [4]): 0.82
Activity (Rattus norvegicus [5]): 1 mmHg
Kb [6]: 12.9 nM
Ratio (Rattus norvegicus [7]): 0.62
Activity (Rattus norvegicus [8]): 7 mmHg
Activity (Felis catus): < 0.01%
Activity (Rattus norvegicus [9]): 3.2 mmHg
Activity (Rattus norvegicus [10]): 3.16 mmHg
Activity (Rattus norvegicus [11]): 2.5 mmHg

CC[C@H](C)[C@H](NC(=O)[C@H](Cc1ccc(O)cc1)NC(=O)[C@@H](NC(=O)[C@H](CCCNC(=N)N)NC(=O)CNC)C(C)C)C(=O)N[C@@H](Cc1cnc[nH]1)C(=O)N1CCC[C@H]1C(=O)N[C@@H](CO)C(=O)O (H-[Sar]RVYIHPS-OH)
pA2 [1]: 9.33
Activity (Rattus norvegicus [2]): 0.66%
Activity (Rattus norvegicus [5]): 9.57 mmHg
Kb [6]: 8.32 nM
Ratio (Rattus norvegicus [7]): 11.15
Activity (Rattus norvegicus [8]): 11.42 mmHg
Activity (Felis catus): 0.05%
Activity (Rattus norvegicus [9]): 9.57 mmHg

CC[C@H](C)[C@H](NC(=O)[C@H](Cc1ccc(O)cc1)NC(=O)[C@@H](NC(=O)[C@H](CCCNC(=N)N)NC(=O)CNC)C(C)C)C(=O)N[C@@H](Cc1cnc[nH]1)C(=O)N1CCC[C@H]1C(=O)N[C@H](C(=O)O)[C@@H](C)OC
Activity (Rattus norvegicus [22]): 11 mmHg
Ratio (Rattus norvegicus [12]): 22.96
Ratio (Rattus norvegicus [23]): 11.61
Activity (Rattus norvegicus [24]): 5 mmHg
Activity (Rattus norvegicus [25]): -1.25 mmHg
Ratio (Rattus norvegicus [26]): 12.06
Activity (Rattus norvegicus [14]): 7.75 mmHg
pA2 [1]: 7
Ratio (Rattus norvegicus [16]): 54.16
Ratio (Rattus norvegicus [27]): 45.86
Activity (Rattus norvegicus [28]): 2.25 mmHg
Activity (Rattus norvegicus [17]): 15.63 mmHg
Activity (Rattus norvegicus [29]): -0.4 mmHg
Activity (Rattus norvegicus [30]): 3 mmHg
Activity (Rattus norvegicus [18]): 13.82 mmHg
Ratio (Rattus norvegicus [19]): 62.52
Activity (Felis catus): 0.1%
Activity (Rattus norvegicus [20]): 7.62 mmHg
Activity (Rattus norvegicus [31]): 19.25 mmHg
Activity (Rattus norvegicus [32]): 11.5 mmHg

CC[C@H](C)[C@H](NC(=O)[C@@H]1CCCN1C(=O)[C@H](Cc1c[nH]cn1)NC(=O)[C@@H](NC(=O)[C@H](Cc1ccc(O)cc1)NC(=O)[C@@H](NC(=O)[C@H](CCCN=C(N)N)NC(=O)CNC)C(C)C)[C@@H](C)CC)C(=O)O
Ratio (Rattus norvegicus [12]): 6.04
Activity (Rattus norvegicus [14]): 8.9 mmHg
pA2 [1]: 9.5
Activity (Rattus norvegicus [17]): 14.81 mmHg
Kb [6]: 0.676 nM
Activity (Rattus norvegicus [18]): 17.81 mmHg
Ratio (Rattus norvegicus [19]): 27.79
Activity (Felis catus): 3%
Activity (Rattus norvegicus [20]): 1.8 mmHg

CC[C@H](C)[C@H](NC(=O)[C@@H]1CCCN1C(=O)[C@H](Cc1cnc[nH]1)NC(=O)[C@@H](NC(=O)[C@H](Cc1ccc(O)cc1)NC(=O)[C@@H](NC(=O)[C@H](CCCNC(=N)N)NC(=O)[C@H](CC(=O)O)NC)C(C)C)[C@@H](C)CC)C(=O)O
pA2 [1]: 8.16
Activity (Rattus norvegicus [2]): 0.76%
Activity (Rattus norvegicus [5]): 10.14 mmHg
Kb [6]: 1.82 nM
Ratio (Rattus norvegicus [7]): 33.43
Activity (Rattus norvegicus [8]): 16.57 mmHg
Activity (Felis catus): 1.01%
Activity (Rattus norvegicus [9]): 16.57 mmHg

CC[C@H](C)[C@H](NC(=O)[C@H](Cc1ccc(O)cc1)NC(=O)[C@@H](NC(=O)[C@H](CCCN=C(N)N)NC(=O)CNC)C(C)C)C(=O)N[C@@H](Cc1c[nH]cn1)C(=O)N1CCC[C@H]1C(=O)N[C@H](C(=O)O)[C@@H](C)O (H-[Sar]RVYIHPT-OH)
Ratio (Rattus norvegicus [12]): 5.52
Activity (Rattus norvegicus [14]): 7.57 mmHg
pA2 [1]: 9
Activity (Rattus norvegicus [17]): 9.2 mmHg
Activity (Rattus norvegicus [18]): 9.46 mmHg
Ratio (Rattus norvegicus [7]): 26.9
Activity (Felis catus): 0%
Activity (Rattus norvegicus [20]): 4.57 mmHg

CC[C@H](C)[C@H](NC(=O)[C@H](Cc1ccc(O)cc1)NC(=O)[C@@H](NC(=O)[C@H](CCCNC(=N)N)NC(=O)CNC)C(C)C)C(=O)N[C@@H](Cc1cnc[nH]1)C(=O)N1CCC[C@H]1C(=O)N[C@@H](CCSC)C(=O)O (H-[Sar]RVYIHPM-OH)
pA2 [1]: 9.16
Activity (Rattus norvegicus [2]): 3.74%
Activity (Rattus norvegicus [5]): 36.75 mmHg
Kb [6]: 2.34 nM
Activity (Rattus norvegicus [8]): 32.5 mmHg
Activity (Felis catus): < 0.01%
Activity (Rattus norvegicus [9]): 36.75 mmHg
